# Experimental data published in the supplement of paper PMC10307832.
# Key:
# Assay in all cases: relative viability (nuclei count vs DMSO), 5 days (fraction); higher = more cells survive
# BAM7 + Vorinostat = compound: CCOC1=CC=CC=C1N=NC2=C(NN(C2=O)C3=NC(=CS3)C4=CC=CC=C4)C [BAM7] + O=C(CCCCCCC(=O)Nc1ccccc1)NO [Vorinostat] (partner 1 µM)
# In short: (§1)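 Relative viability is defined as nuclei in treated wells over nuclei in vehicle wells. Duplicate plates were run and medians reported. Lung cancer cell lines in 1536-well plates were dosed by pin tool one day after seeding, with one drug or with a fixed anchor-drug dose plus five library-drug doses (not always all listed) in √10 steps, and nuclei were counted after 5 days.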
# [1] = compound: CCn1c(-c2nonc2N)nc2c(C#CC(C)(C)O)ncc(OC[C@H]3CCCNC3)c21 + CCNC(=O)c1noc(-c2cc(C(C)C)c(O)cc2O)c1-c1ccc(CN2CCOCC2)cc1 [Luminespib] (partner 0.01 µM)
# In short: as §1
# [2] = compound: CCn1c(-c2nonc2N)nc2c(C#CC(C)(C)O)ncc(OC[C@H]3CCCNC3)c21 + C[C@]1(O)C[C@@H](c2nc(-c3ccc4ccc(-c5ccccc5)nc4c3)c3c(N)nccn32)C1 [Linsitinib] (partner 1 µM)
# In short: as §1
# [3] = compound: CCn1c(-c2nonc2N)nc2c(C#CC(C)(C)O)ncc(OC[C@H]3CCCNC3)c21 + O=C(c1cc(Cc2n[nH]c(=O)c3ccccc23)ccc1F)N1CCN(C(=O)C2CC2)CC1 [Olaparib] (partner 8 µM)
# In short: as §1
cell line,measurement,setting,value
PC-14,relative viability,BAM7 + Vorinostat; first compound 0.5 µM,0.86
same,relative viability,BAM7 + Vorinostat; first compound 5 µM,0.616
same,relative viability,BAM7 + Vorinostat; first compound 15.81 µM,0.697
same,relative viability,BAM7 + Vorinostat; first compound 50 µM,0.7
same,relative viability,[1]; first compound 0.01 µM,0.173
same,relative viability,[1]; first compound 0.03162 µM,0.112
same,relative viability,[1]; first compound 0.1 µM,0.158
same,relative viability,[1]; first compound 0.3162 µM,0.107
same,relative viability,[1]; first compound 1 µM,0.148
same,relative viability,[2]; first compound 0.01 µM,0.967
same,relative viability,[2]; first compound 0.03162 µM,0.975
same,relative viability,[2]; first compound 0.1 µM,0.963
same,relative viability,[2]; first compound 0.3162 µM,0.849
same,relative viability,[2]; first compound 1 µM,0.919
same,relative viability,[3]; first compound 0.01 µM,0.309
same,relative viability,[3]; first compound 0.03162 µM,0.244
same,relative viability,[3]; first compound 0.1 µM,0.34
same,relative viability,[3]; first compound 0.3162 µM,0.378
same,relative viability,[3]; first compound 1 µM,0.412
NCI-H1915,relative viability,BAM7 + Vorinostat; first compound 0.5 µM,0.487
same,relative viability,BAM7 + Vorinostat; first compound 5 µM,0.564
same,relative viability,BAM7 + Vorinostat; first compound 15.81 µM,0.537
same,relative viability,BAM7 + Vorinostat; first compound 50 µM,0.515
same,relative viability,[1]; first compound 0.01 µM,0.713
same,relative viability,[1]; first compound 0.03162 µM,0.898
same,relative viability,[1]; first compound 0.1 µM,0.741
same,relative viability,[1]; first compound 0.3162 µM,0.755
same,relative viability,[1]; first compound 1 µM,0.724
same,relative viability,[2]; first compound 0.01 µM,1.08
same,relative viability,[2]; first compound 0.03162 µM,1.1
same,relative viability,[2]; first compound 0.1 µM,1.05
same,relative viability,[2]; first compound 0.3162 µM,1.12
same,relative viability,[2]; first compound 1 µM,1.08
same,relative viability,[3]; first compound 0.01 µM,0.258
same,relative viability,[3]; first compound 0.03162 µM,0.277
same,relative viability,[3]; first compound 0.1 µM,0.225
same,relative viability,[3]; first compound 0.3162 µM,0.249
same,relative viability,[3]; first compound 1 µM,0.255
NCI-H1666,relative viability,BAM7 + Vorinostat; first compound 0.5 µM,1.08
same,relative viability,BAM7 + Vorinostat; first compound 5 µM,0.944
same,relative viability,BAM7 + Vorinostat; first compound 15.81 µM,1.01
same,relative viability,BAM7 + Vorinostat; first compound 50 µM,1.05
same,relative viability,[1]; first compound 0.01 µM,0.948
same,relative viability,[1]; first compound 0.03162 µM,0.933
same,relative viability,[1]; first compound 0.1 µM,1.05
same,relative viability,[1]; first compound 0.3162 µM,0.959
same,relative viability,[1]; first compound 1 µM,1.04
same,relative viability,[2]; first compound 0.01 µM,0.805
same,relative viability,[2]; first compound 0.03162 µM,0.92
same,relative viability,[2]; first compound 0.1 µM,0.928
same,relative viability,[2]; first compound 0.3162 µM,0.732
same,relative viability,[2]; first compound 1 µM,0.738
same,relative viability,[3]; first compound 0.01 µM,0.793
same,relative viability,[3]; first compound 0.03162 µM,0.722
same,relative viability,[3]; first compound 0.1 µM,0.752
same,relative viability,[3]; first compound 0.3162 µM,0.769
same,relative viability,[3]; first compound 1 µM,0.778
SK-MES-1,relative viability,BAM7 + Vorinostat; first compound 0.5 µM,1.04
same,relative viability,BAM7 + Vorinostat; first compound 5 µM,1.06
same,relative viability,BAM7 + Vorinostat; first compound 15.81 µM,1.05
same,relative viability,BAM7 + Vorinostat; first compound 50 µM,1.04
same,relative viability,[1]; first compound 0.01 µM,0.907
same,relative viability,[1]; first compound 0.03162 µM,0.904
same,relative viability,[1]; first compound 0.1 µM,0.674
same,relative viability,[1]; first compound 0.3162 µM,0.712
same,relative viability,[1]; first compound 1 µM,0.743
same,relative viability,[2]; first compound 0.01 µM,1.07
same,relative viability,[2]; first compound 0.03162 µM,1.11
same,relative viability,[2]; first compound 0.1 µM,1.05
same,relative viability,[2]; first compound 0.3162 µM,1.03
same,relative viability,[2]; first compound 1 µM,1
same,relative viability,[3]; first compound 0.01 µM,0.658
same,relative viability,[3]; first compound 0.03162 µM,0.72
same,relative viability,[3]; first compound 0.1 µM,0.678
same,relative viability,[3]; first compound 0.3162 µM,0.649
same,relative viability,[3]; first compound 1 µM,0.702
SW 1573,relative viability,BAM7 + Vorinostat; first compound 0.5 µM,0.715
same,relative viability,BAM7 + Vorinostat; first compound 5 µM,0.735
same,relative viability,BAM7 + Vorinostat; first compound 15.81 µM,1.06
same,relative viability,BAM7 + Vorinostat; first compound 50 µM,0.606
same,relative viability,[1]; first compound 0.01 µM,0.215
same,relative viability,[1]; first compound 0.03162 µM,0.563
same,relative viability,[1]; first compound 0.1 µM,0.178
same,relative viability,[1]; first compound 0.3162 µM,0.584
same,relative viability,[1]; first compound 1 µM,0.342
same,relative viability,[2]; first compound 0.01 µM,0.827
same,relative viability,[2]; first compound 0.03162 µM,0.793
same,relative viability,[2]; first compound 0.1 µM,0.81
same,relative viability,[2]; first compound 0.3162 µM,0.7
same,relative viability,[2]; first compound 1 µM,0.772
same,relative viability,[3]; first compound 0.01 µM,0.553
same,relative viability,[3]; first compound 0.03162 µM,0.39
same,relative viability,[3]; first compound 0.1 µM,0.477
same,relative viability,[3]; first compound 0.3162 µM,0.399
same,relative viability,[3]; first compound 1 µM,0.364
NCI-H661,relative viability,BAM7 + Vorinostat; first compound 0.5 µM,0.82
same,relative viability,BAM7 + Vorinostat; first compound 5 µM,0.843
same,relative viability,BAM7 + Vorinostat; first compound 15.81 µM,0.784
same,relative viability,BAM7 + Vorinostat; first compound 50 µM,0.774
same,relative viability,[1]; first compound 0.01 µM,0.89
same,relative viability,[1]; first compound 0.03162 µM,0.95
same,relative viability,[1]; first compound 0.1 µM,0.947
same,relative viability,[1]; first compound 0.3162 µM,0.965
same,relative viability,[1]; first compound 1 µM,0.995
same,relative viability,[2]; first compound 0.01 µM,0.566
same,relative viability,[2]; first compound 0.03162 µM,0.658
same,relative viability,[2]; first compound 0.1 µM,0.508
same,relative viability,[2]; first compound 0.3162 µM,0.546
same,relative viability,[2]; first compound 1 µM,0.576
same,relative viability,[3]; first compound 0.01 µM,0.713
same,relative viability,[3]; first compound 0.03162 µM,0.755
same,relative viability,[3]; first compound 0.1 µM,0.836
same,relative viability,[3]; first compound 0.3162 µM,0.771
same,relative viability,[3]; first compound 1 µM,0.758
PC-3 [JPC-3],relative viability,BAM7 + Vorinostat; first compound 0.5 µM,0.754
same,relative viability,BAM7 + Vorinostat; first compound 5 µM,0.793
same,relative viability,BAM7 + Vorinostat; first compound 15.81 µM,0.775
same,relative viability,BAM7 + Vorinostat; first compound 50 µM,0.638
same,relative viability,[1]; first compound 0.01 µM,0.734
same,relative viability,[1]; first compound 0.03162 µM,0.726
same,relative viability,[1]; first compound 0.1 µM,0.709
same,relative viability,[1]; first compound 0.3162 µM,0.67
same,relative viability,[1]; first compound 1 µM,0.591
same,relative viability,[2]; first compound 0.01 µM,0.959
same,relative viability,[2]; first compound 0.03162 µM,0.933
same,relative viability,[2]; first compound 0.1 µM,0.98
same,relative viability,[2]; first compound 0.3162 µM,0.927
same,relative viability,[2]; first compound 1 µM,0.932
same,relative viability,[3]; first compound 0.01 µM,1.07
same,relative viability,[3]; first compound 0.1 µM,1.15
same,relative viability,[3]; first compound 0.3162 µM,1.03
same,relative viability,[3]; first compound 1 µM,1.09
